Active and inactive are the calls of the source. No cut-off for these calls is given here. Some results are limits rather than exact numbers.

Experiment [1] concerns the target T1, Secreted mono- and diacylglycerol lipase LIP1 (Malassezia globosa (strain ATCC MYA-4612 / CBS 7966)(Dandruff-associated fungus)) (UniProt A8PUY1).
T1 sequence (whole entry): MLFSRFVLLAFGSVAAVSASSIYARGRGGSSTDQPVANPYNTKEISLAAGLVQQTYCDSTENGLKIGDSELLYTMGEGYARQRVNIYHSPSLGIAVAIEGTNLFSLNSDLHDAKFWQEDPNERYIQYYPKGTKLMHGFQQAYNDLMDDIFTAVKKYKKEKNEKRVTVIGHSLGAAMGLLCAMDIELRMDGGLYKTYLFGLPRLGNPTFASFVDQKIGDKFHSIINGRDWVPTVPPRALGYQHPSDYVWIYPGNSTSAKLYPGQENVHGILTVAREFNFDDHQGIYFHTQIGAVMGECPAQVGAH
Description: Competitive inhibition of Malassezia globosa CBS 7966 LIP1 using pNPA substrate by Lineweaver-Burk plot method.

The target of experiment [2] is T2, Secreted mono- and diacylglycerol lipase LIP1 (Malassezia globosa (strain ATCC MYA-4612 / CBS 7966)(Dandruff-associated fungus), UniProt A8PUY1).
T2 sequence (A8PUY1 whole entry): T1 sequence (whole entry)
The experiment can be described thus: Inhibition of Malassezia globosa CBS 7966 LIP1 using pNPA substrate.

The target in experiment [3] is T2, Secreted mono- and diacylglycerol lipase LIP1. The experiment can be described thus: Inhibition of Malassezia globosa CBS 7966 LIP1 using pNPC substrate.
The target is the same in experiment [4]. Description: Inhibition of Malassezia globosa CBS 7966 LIP1 incubated for 1 hr using monoolein substrate.

The IC50 is the midpoint of a concentration-inhibition curve. A lower IC50 goes with greater potency. Take `O=C(O)c1ccc(=S)n(CC(=O)c2ccccc2)c1`: the inhibition entry in experiment [1] was “Active”. Also, in experiment [2], 98.3 µM corresponded to half-maximal inhibition (IC50).

Consider `O=C1c2ccccc2CN1CCSC(=S)N1CCCC1`, for which half-maximal inhibition in experiment [3] (IC50) required 22.9 µM.

Compound `O=C1c2ccccc2CN1CCSC(=S)N1CCOCC1` showed a concentration for half-maximal inhibition (IC50) in experiment [3] above 200 µM.

For the compound `O=C1c2ccccc2CN1CCSC(=S)N1CCCCCC1`, the results for the IC50 in experiment [3], in experiment [4] and in experiment [2] were 24.4 µM, 0.19 µM and 20.1 µM, respectively. In addition, the inhibition entry in experiment [1] is “Dose-dependent effect”.

Take `Cc1ccc(C(=O)Oc2ccc3ccc(O)cc3c2)cc1`: the inhibition entry in experiment [1] was “Active”. In experiment [2], this compound displayed a 50% inhibitory concentration (IC50) of 81.8 µM.

In experiment [3], `O=C1c2ccccc2C(=O)N1CCSC(=S)N1CCCC1` showed an IC50 above 200 µM.

Consider `O=C1c2ccccc2C(=O)N1CCSC(=S)N1CCOCC1`, for which the IC50 in experiment [3] was above 200 µM.

Regarding `O=C(NCCCCCCNC(=O)ON=C1CCCCC1)ON=C1CCCCC1`, the inhibition entry in experiment [1] was “Active”. The compound also gave an IC50 in experiment [2] of 75.2 µM.

In turn, `O=C1c2ccccc2C(=O)N1CCSC(=S)N1CCCCCC1` came in with a concentration for half-maximal inhibition (IC50) in experiment [3] of 63.6 µM.

(Values after ChEMBL document CHEMBL3608237, “Novel inhibitor against Malassezia globosa LIP1 (SMG1), a potential anti-dandruff target” (Bioorg Med Chem Lett, 2015).)
